Measured values reported in US10035778B2, “Meta-azacyclic amino benzoic acid derivatives as pan integrin antagonists” (Saint Louis University, priority 2015, dated 2018).

Experiments:
[1] = IV cassette pharmacokinetic study in male Sprague-Dawley rats (Saint Louis University); type: in vivo; conditions: plasma; male Sprague-Dawley rat, 1 mg/kg IV cassette, sampling to 24 h; read-out: plasma t½ after 1 mg/kg IV bolus dose in rat (converted)
Protocol: (§1) A minimally sufficient volume of dimethylsulfoxide (DMSO) was added to each test compound to achieve solubilization. For intravenous (IV) delivery, compounds were then formulated as solutions in glycerol formal: saline (either 20:80 or 40:60 v/v) (Sigma Chemicals, St. Louis). For oral (PO) administration, compounds were formulated with 0.5% methylcellulose. Five to six compound solutions were combined into a singled mixed solution for IV and PO cassette administration with final DMSO concentrations <0.6% or <1.2%, for the IV and PO cassettes, respectively. Analytes were detected in test samples using an LC/MS/MS (liquid chromatography/mass spectrometry) system consisting of an LC-20AD pump (Shimadzu, Kyoto, Japan), an HTC PAL autosampler (Leap technologies, Carrboro, N.C.), and a Sciex API-4000 mass spectrometer in ESI mode (AB Sciex, Foster City, Calif.). An Amour C18 reverse phase column (Analytical Sales and Services, Pompton Plains, N.J.) was used for chromatographic separation.
(§2) Pharmacokinetic (PK) studies conducted at Saint Louis University used male Sprague-Dawley rats with an initial body weight of 200 to 220 g. IV PK studies were performed with the following compounds: Examples 1-3 and 5-17 and comparison compounds C12-C18, C29, and C30. Animals were allowed free access to food and water. Rats were individually housed and connected to jugular vein catheters. Each cassette formulation was administered intravenously to two rats (1 mL/kg body weight). Each cassette formulation contained 5-6 compounds at 1 mg/kg in either 20:80 or 40/60 glycerol formal/saline (v/v). Blood was collected manually via the catheter into lithium-heparin tubes at 0.017, 0.083, 0.5, 1, 2, 4, 6 and 24 hours post-dose. Animals were euthanized with CO2 at the end of the experiment.
(§3) Internal standard was added to all samples at 200 ng/mL (final), as well as 150 μL of acetonitrile. Plasma samples (50 μL total volume) were diluted with control nave rat plasma as appropriate to bring the sample measurement into the linear dynamic range of the standard curve. The samples were capped and mixed on a multi-plate vortexer for 5 minutes and centrifuged for 5 minutes at 3200 rmp. The supernant was transferred to 96-well sample plate and capped for LC/MS/MS analysis. Compounds were optimized and monitored for their respective MRM transitions. The mobile phases consisted of 0.1% formic acid (aqueous) and 100% acetonitrile (organic) with an Amour C18 reverse phase column (2.1×30 mm, 5 micron) at a flow rate of 0.35 mL/min. The starting phase was 10% acetonitrile for the 0.9 minutes then increased to 90% acetonitrile over 0.4 minutes, and was maintained for an additional 0.2 minutes before returning to 10% acetonitrile over 0.4 minutes. The 10% acetonitrile was held for an additional 1.6 minutes. Peak areas were integrated using Analyst 1.5.1 (AB Sciex, Foster City, Calif.).

[2] = biological target: Recombinant human integrin αvβ3 (Homo sapiens (Human), UniProt P05106+P06756); experiment: Solid Phase Receptor Assay (SPRA) for αvβ3 function; type: binding; conditions: vitronectin-coated plate
Protocol: 3. Solid Phase Receptor Assay (SPRA) for αvβ3 Function
Recombinant human vitronectin (R& D Systems, 2308-VN) diluted to 1 μg/mL in TBS+ buffer (25 mM Tris pH 7.4, 137 mM NaCl, 2.7 mM KCl, 1 mM CaCl2, 1 mM MgCl2, 1 mM MnCl2) was added to wells (50 μL/well) of a 96-well half-well transparent microtiter plate (Greiner 675061) and incubated overnight at 4° C. Wells were washed 3 times with 150 μL TBS+ and 150 μL of blocking buffer (TBS+ with 1% bovine serum albumin, Sigma A7906) were added. The plate was incubated for 1 hr at 37° C. and then washed 3× with TBS+ buffer. Recombinant human integrin αvβ3 (R&D Systems, 3050-AV) was diluted to 1 μg/mL in TBS+/0.1% bovine serum albumin. Compounds were diluted 1:100 into the integrin solution and then 50 μL added to empty wells of the washed vitronectin-coated plate according to a standard template with each sample repeated in triplicate. After incubation for two hours at room temperature, the plate was washed 3× with 150 μL of TBS+ buffer. To each well, 50 μL of biotinylated anti-αv antibody (R&D Systems, BAF1219) at 0.5 μg/mL in TBS+/0.1% BSA were added and the plate covered and incubated for 1 hr at room temperature. After washing the plate 3× with 150 μL of TBS+ buffer, 50 μL of streptavidin-conjugated horseradish peroxidase (R&D Systems, DY998) diluted in TBS+ blocking buffer were added to the wells and the plate incubated for 20 min at room temperature. The plate was washed 3× with TBS+ buffer followed by 50 μL of TMB substrate (Sigma, T4444) added to each well and the plate was incubated for 20 min at room temperature. Plates were read by colorimetric detection at 650 nm wavelength using a Tecan Safire II plate reader. Concentration-response curves were constructed by non-linear regression (best fit) analysis, and IC50 values were calculated for each compound.

[3] = Oral (PO) cassette pharmacokinetic study in male Sprague-Dawley rats; type: in vivo; conditions: plasma; male Sprague-Dawley rat, 2 mg/kg oral gavage cassette in 0.5% methylcellulose; read-out: AUC (0-inf) after a 2 mg/kg PO dose in rat
Protocol: as §1, §2
Oral PK studies were conducted with the following compounds: Examples 1-3 and 5-17 and comparison compounds C12, C14-16 and C29-30. The PO cassette formulations were administered via oral gavage to two rats (10 mL/kg body weight) containing 5-6 compounds per cassette. The oral dose was administered at 2 mg/kg/compound in 0.5% methylcellulose. Blood collection time points were 0.25, 0.5, 1, 2, 4, 6 and 24 hours post-dose into lithium-heparin tubes. Animals were euthanized with CO2 at the end of the experiment.
as §3

Recombinant human integrin αvβ3, sequence (P06756 31-992): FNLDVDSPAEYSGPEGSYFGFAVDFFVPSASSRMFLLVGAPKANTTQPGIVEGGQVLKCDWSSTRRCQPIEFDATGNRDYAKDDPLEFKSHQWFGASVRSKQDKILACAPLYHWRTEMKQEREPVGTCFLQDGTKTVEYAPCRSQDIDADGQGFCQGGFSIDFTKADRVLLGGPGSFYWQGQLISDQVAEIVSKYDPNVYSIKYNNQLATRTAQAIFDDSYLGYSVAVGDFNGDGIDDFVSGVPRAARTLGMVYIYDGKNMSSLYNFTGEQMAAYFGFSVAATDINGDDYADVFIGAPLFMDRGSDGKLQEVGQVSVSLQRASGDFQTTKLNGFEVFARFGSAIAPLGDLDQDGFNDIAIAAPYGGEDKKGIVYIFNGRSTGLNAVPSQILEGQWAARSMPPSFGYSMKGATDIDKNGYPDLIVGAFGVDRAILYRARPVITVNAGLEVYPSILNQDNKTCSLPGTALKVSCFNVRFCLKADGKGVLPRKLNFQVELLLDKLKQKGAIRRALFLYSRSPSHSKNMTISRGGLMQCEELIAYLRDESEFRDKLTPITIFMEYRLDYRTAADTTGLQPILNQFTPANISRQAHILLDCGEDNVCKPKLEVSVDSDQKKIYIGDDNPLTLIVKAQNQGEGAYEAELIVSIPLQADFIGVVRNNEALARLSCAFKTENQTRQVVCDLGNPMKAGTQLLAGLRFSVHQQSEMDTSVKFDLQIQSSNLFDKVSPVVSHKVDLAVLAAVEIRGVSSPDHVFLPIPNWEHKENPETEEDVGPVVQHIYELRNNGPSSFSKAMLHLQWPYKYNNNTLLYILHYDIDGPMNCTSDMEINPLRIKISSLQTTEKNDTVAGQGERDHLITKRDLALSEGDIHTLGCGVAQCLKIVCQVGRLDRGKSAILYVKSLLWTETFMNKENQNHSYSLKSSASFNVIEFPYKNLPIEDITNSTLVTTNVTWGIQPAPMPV
Recombinant human integrin αvβ3, sequence (P05106 27-718): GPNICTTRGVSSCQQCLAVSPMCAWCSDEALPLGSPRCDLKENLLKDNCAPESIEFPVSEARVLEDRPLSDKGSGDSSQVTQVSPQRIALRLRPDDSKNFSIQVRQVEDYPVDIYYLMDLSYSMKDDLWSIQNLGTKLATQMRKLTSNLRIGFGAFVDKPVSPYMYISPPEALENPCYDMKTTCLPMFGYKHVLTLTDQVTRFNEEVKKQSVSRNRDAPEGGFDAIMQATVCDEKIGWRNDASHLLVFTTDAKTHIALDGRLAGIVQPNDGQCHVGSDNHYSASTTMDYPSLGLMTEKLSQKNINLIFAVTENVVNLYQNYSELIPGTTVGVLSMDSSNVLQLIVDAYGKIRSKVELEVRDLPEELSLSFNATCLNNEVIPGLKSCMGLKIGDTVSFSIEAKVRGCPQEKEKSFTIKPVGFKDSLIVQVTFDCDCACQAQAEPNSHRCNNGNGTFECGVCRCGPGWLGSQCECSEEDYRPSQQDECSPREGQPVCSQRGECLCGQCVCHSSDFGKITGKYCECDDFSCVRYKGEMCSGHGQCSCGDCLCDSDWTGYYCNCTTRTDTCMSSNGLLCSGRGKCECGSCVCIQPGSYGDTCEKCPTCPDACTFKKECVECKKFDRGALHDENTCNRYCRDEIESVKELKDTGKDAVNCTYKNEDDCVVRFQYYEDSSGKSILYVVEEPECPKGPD

Structure (SMILES)	half-life [1] [h]	IC50 [2] [nM]	AUC(0-inf) [3] [µg·h/mL]
Cc1cc(Cl)cc([C@H](CC(=O)O)NC(=O)CNC(=O)c2cc(O)cc(NC3=NCC(O)CN3)c2)c1 (stereo partly drawn) [Example 12, (3S)-3-[3-chloro-5-methyl-phenyl)-3-(2-(3-hydroxy-5-((5-hydroxy-1,4,5,6-tetrahydropyrimidin-2-yl)amino)benzamido)acetamido)propanoic acid]	13.7	4	9.11
O=C(O)C[C@H](NC(=O)CNC(=O)c1cc(O)cc(NC2=NCC(O)CN2)c1)c1cc(F)cc(Br)c1 (stereo partly drawn) [Example 13, (3S)-3-[3-bromo-5-fluoro-phenyl)-3-(2-(3-hydroxy-5-((5-hydroxy-1,4,5,6-tetrahydropyrimidin-2-yl)amino)benzamido)acetamido)propanoic acid]	11	1.7	13.9
O=C(O)C[C@H](NC(=O)CNC(=O)c1cncc(NC2=NCC(O)CN2)c1)c1cc(Br)cc(Br)c1 (stereo partly drawn) [Example 14, (3S)-3-(3,5-dibromophenyl)-3-[[2-[[5-[(5-hydroxy-1,4,5,6-tetrahydropyrimidin-2-yl)amino]pyridine-3-carbonyl]amino]acetyl]amino]propanoic acid]	34.2	0.3	6.5
O=C(O)C[C@H](NC(=O)CNC(=O)c1cc(O)cc(NC2=NCC(O)CN2)c1)c1cc(Cl)cc(Cl)c1 (stereo partly drawn) [Example 15, (3S)-3-[3,5-dichloro-phenyl)-3-(2-(3-hydroxy-5-((5-hydroxy-1,4,5,6-tetrahydropyrimidin-2-yl)amino)benzamido)acetamido)propanoic acid]	23.8	4	15.6
O=C(O)C[C@H](NC(=O)CNC(=O)c1cc(O)cc(NC2=NCC(O)CN2)c1)c1cc(Cl)cc(OC(F)(F)F)c1 (stereo partly drawn) [Example 16, (3S)-3-[3-chloro-5-(trifluoromethoxy)phenyl)-3-(2-(3-hydroxy-5-((5-hydroxy-1,4,5,6-tetrahydropyrimidin-2-yl)amino)benzamido)acetamido)propanoic acid]	3.2	3 ± 0.3	6.81
O=C(O)C[C@H](NC(=O)CNC(=O)c1cc(O)cc(NC2=NCC(O)CN2)c1)c1cc(Br)cc(OC(F)(F)F)c1 (stereo partly drawn) [Example 17, (3S)-3-(3-bromo-5-(trifluoromethoxy)phenyl)-3-(2-(3-hydroxy-5-((5-hydroxy-1,4,5,6-tetrahydropyrimidin-2-yl)amino)benzamido)acetamido)propanoic acid]	4.1	2.8 ± 1.1	13.1
